Test system: Alzheimer's disease patients
Experiment: Clinical trial in Alzheimer's disease patients, analysis of psychiatric disorder events (MedDRA adverse events)
Assay type: in vivo, human
Method: A clinical trial with (R)-2-(2-fluoro-4-biphenylyl)propionic acid (USAN name of tarneflurbil) was conducted according to the method disclosed in U.S. patent application Ser. No. 10/889,971, filed Jul. 12, 2004, (US publication no. 20050042284) which is expressly incorporated herein by reference in its entirety. In this clinical trial, Alzheimer's disease patients were treated with placebo, 400 mg tarenflurbil twice daily, or 800 mg tarenflurbil twice daily for one year. Analysis of the psychiatric disorder events yielded the following results.

[1] = 400 mg BID for one year, N = 40
[2] = 800 mg BID for one year, N = 50

Compound: C[C@@H](C(=O)O)c1ccc(-c2ccccc2)c(F)c1 [tarenflurbil, (R)-2-(2-fluoro-4-biphenylyl)propionic acid]
- Abnormal behaviour, number [1]: 0
- Abnormal dreams, number [1]: 0
- Aggression, number [1]: 0
- Agitation, number [1]: 2
- Agitation, percent of N [1]: (5%)
- Anger, number [1]: 1
- Anger, percent of N [1]: (2.5%)
- Anxiety, number [1]: 2
- Anxiety, percent of N [1]: (5%)
- Apathy, number [1]: 0
- Confusional state, number [1]: 4
- Confusional state, percent of N [1]: (10%)
- Delusion, number [1]: 1
- Delusion, percent of N [1]: (2.5%)
- Depression, number [1]: 1
- Depression, percent of N [1]: (2.5%)
- Hallucination, number [1]: 0
- Hallucination, visual, number [1]: 1
- Hallucination, visual, percent of N [1]: (2.5%)
- Insomnia, number [1]: 0
- Libi do increased, number [1]: 1
- Libi do increased, percent of N [1]: (2.5%)
- Mood altered, number [1]: 0
- Mood swings, number [1]: 1
- Mood swings, percent of N [1]: (2.5%)
- Nightmare, number [1]: 0
- Number of Patients With at Least One Adverse Event (Psychiatric Disorder) [1]: 12
- Paranoia, number [1]: 1
- Paranoia, percent of N [1]: (2.5%)
- Patients With at Least One Adverse Event (Psychiatric Disorder), percent of N [1]: (30%)
- Psychotic disorder, number [1]: 1
- Psychotic disorder, percent of N [1]: (2.5%)
- Sleep disorder, number [1]: 1
- Sleep disorder, percent of N [1]: (2.5%)
- Total Number of Adverse Events (Psychiatric Disorders, MedDRA) [1]: 17
- Abnormal behaviour, number [2]: 0
- Abnormal dreams, number [2]: 0
- Aggression, number [2]: 0
- Agitation, number [2]: 1
- Agitation, percent of N [2]: (2%)
- Anger, number [2]: 0
- Anxiety, number [2]: 2
- Anxiety, percent of N [2]: (4%)
- Apathy, number [2]: 0
- Confusional state, number [2]: 0
- Delusion, number [2]: 0
- Depression, number [2]: 4
- Depression, percent of N [2]: (8%)
- Hallucination, number [2]: 0
- Hallucination, visual, number [2]: 0
- Insomnia, number [2]: 1
- Insomnia, percent of N [2]: (2%)
- Libi do increased, number [2]: 0
- Mood altered, number [2]: 1
- Mood altered, percent of N [2]: (2%)
- Mood swings, number [2]: 0
- Nightmare, number [2]: 1
- Nightmare, percent of N [2]: (2%)
- Number of Patients With at Least One Adverse Event (Psychiatric Disorder) [2]: 7
- Paranoia, number [2]: 0
- Patients With at Least One Adverse Event (Psychiatric Disorder), percent of N [2]: (14%)
- Psychotic disorder, number [2]: 0
- Sleep disorder, number [2]: 0
- Total Number of Adverse Events (Psychiatric Disorders, MedDRA) [2]: 10
- number of psychiatric events (incidence) (treatment group, statistical analysis, p=0.02): reduce the incidence of psychiatric events
- time to progression to psychiatric events (onset) (treatment group, statistical analysis, p=0011): delay the onset of
